Assay [1] deals with L1210 murine leukemia cell line. Briefly: Cytotoxic activity against L1210 murine leukemia in vitro. The format is cell-based. The settings on record: Mus musculus, 50% inhibition of growth, duplicate tests. How it is done: The antineoplastic activities of representative compounds of the present invention against the L1210 murine leukemia cell line in vitro were determined using the methods detailed by R. I. Geran et al, "Protocols for Screening Chemical Agents and Natural Products Against Animal Tumors and Other Biological Systems," 3rd Edition, Cancer Chemotherapy Reports, Part 3, Vol. 3, pages 1-87 (1972) which is incorporated herein by reference.
The IC50 values are the concentration of compound required to produce 50% inhibition of growth of the cell line.

A further assay deals with Staphylococcus aureus. Kind of assay: Microtiter dilution MIC, Staphylococcus aureus. It counts as cell-based. The note with it: Mueller-Hinton broth, 37° C., 16-24 hours, read-out: Minimal Inhibitory Concentration. On the procedure:
(§1) The compounds of the present invention and their pharmaceutically acceptable salts are useful as antimicrobial agents. The antimicrobial activity of the representative examples of compounds in accordance with the present invention against five species of gram-negative bacteria, seven species of gram-positive bacteria, four species of yeast, and two species of fungi were determined using the microtiter dilution technique. This method is described by T. B. Conrath, "Handbook of Microtiter Procedures," Dynatech Corp., Cambridge, Mass., USA (1972); and T. L. Gavan et al, "Microdilution Test Procedures," in Manual of Clinical Microbiology, E. H. Lennette, Ed., American Soc. for Microbiol., Washington, D.C., U.S.A. (1980).
(§2) Each agent is suspended in a nonaqueous solvent for several minutes to sterilize the compound or, if the compound is completely soluble in water, the aqueous solution is sterilized by passage through a 0.2-0.45 micrometer membrane filter.
(§3) Each well of a sterile 96-well microdilution tray is filled under aseptic conditions with 0.1 ml of Mueller-Hinton broth (for antibacterial tests), or yeast extract-peptone-dextrose or buffered supplemented yeast nitrogen base (for tests with yeasts or fungi).
(§4) […] of the test compound solution is added to each of the eight wells in the first row of the tray. A microdilutor apparatus is used to simultaneously mix the contents of these wells and to transfer aliquots to each succeeding row of cells to obtain a range of serially diluted solutions. The last row of wells is untreated and serves as a control.
(§5) Each well containing broth and test compound is inoculated with about ten microliters of inoculum of the test microorganism. One well in the last row of wells (which is free of test compound) is not inoculated and is used as a sterility control The trays are sealed and incubated at 37° C. for 16-24 hours (for bacteria) or at 28° C. for 36-48 hours (yeasts or fungi). During incubation, the inoculated medium is shaken at 100-140 rpm to increase contact between the microorganism cells and test compounds.
(§6) After the incubation period, each plate is evaluated by determining the lowest concentration of test compound required to inhibit the growth of the microorganism and recorded as a minimal inhibitory concentration (MIC).

The test system of the next assay is Micrococcus luteus. Kind of assay: Microtiter dilution MIC, Micrococcus luteus. The format is cell-based. The note with it: Mueller-Hinton broth, 37° C., 16-24 hours, read-out: Minimal Inhibitory Concentration. On the procedure: as §1, §2, §3, §4, §5, §6
Another assay deals with Bacillus cereus. Kind of assay: Microtiter dilution MIC, Bacillus cereus. It counts as cell-based. The note with it: Mueller-Hinton broth, 37° C., 16-24 hours, read-out: Minimal Inhibitory Concentration. How it is done:
as §1, §2, §3, §4, §5, §6

For another assay, the system named is Salmonella typhimurium. Kind of assay: Microtiter dilution MIC, Salmonella typhimurium. The format is cell-based. The note with it: Salmonella enterica, Mueller-Hinton broth, 37° C., 16-24 hours, read-out: Minimal Inhibitory Concentration. On the procedure: as §1, §2, §3, §4, §5, §6
The test system of another assay is Streptococcus pneumoniae. Briefly: Microtiter dilution MIC, Streptococcus pneumoniae. The format is cell-based. The note with it: Mueller-Hinton broth, 37° C., 16-24 hours, read-out: Minimal Inhibitory Concentration. How it is done:
as §1, §2, §3, §4, §5, §6

The subject of assay [2] is Escherichia coli (PD-04863). Kind of assay: Microtiter dilution MIC, Escherichia coli (PD-04863). The note with it: Mueller-Hinton broth, 37° C., 16-24 hours, read-out: Minimal Inhibitory Concentration. It counts as cell-based. How it is done: as §1, §2, §3, §4, §5, §6
In assay [3] the test system is Schizosaccharomyces pombe. Briefly: Microtiter dilution MIC, Schizosaccharomyces pombe. The format is cell-based. The settings on record: yeasts or fungi, 28° C., 36-48 hours, read-out: Minimal Inhibitory Concentration. How it is done: as §1, §2, §3, §4, §5, §6
The subject of the next assay is Rhodotorula aurantiaca. Briefly: Microtiter dilution MIC, Rhodotorula aurantiaca. It counts as cell-based. The note with it: Buckleyzyma aurantiaca; yeasts or fungi, 28° C., 36-48 hours; read-out: Minimal Inhibitory Concentration. How it is done:
as §1, §2, §3, §4, §5, §6

The next assay deals with Rhizopus japonicus. Kind of assay: Microtiter dilution MIC, Rhizopus japonicus. The format is cell-based. The note with it: yeasts or fungi, 28° C., 36-48 hours, read-out: Minimal Inhibitory Concentration. How it is done:
as §1, §2, §3, §4, §5, §6

Another assay concerns Streptococcus faecalis. Kind of assay: Microtiter dilution MIC, Streptococcus faecalis. The settings on record: Enterococcus faecalis; Mueller-Hinton broth, 37° C., 16-24 hours; read-out: Minimal Inhibitory Concentration. The format is cell-based. How it is done: as §1, §2, §3, §4, §5, §6
The next assay has as its system P388 leukemia cell line. Kind of assay: In vivo antineoplastic activity against transplanted P388 leukemia in mice. The settings on record: Days 1-9. On the procedure:
The in vivo antineoplastic activity of representative compounds of the present invention against the transplanted P388 leukemia cell line in mice was determined in accordance with the protocol given in Geran et al, cited above. The mice were infected intraperitoneally on Day 0 and then administered the indicated doses of the test compounds on Days 1-9.

For the next assay, the system named is Branhamella catarrhalis. Briefly: Microtiter dilution MIC, Branhamella catarrhalis. It counts as cell-based. The note with it: Moraxella catarrhalis; Mueller-Hinton broth, 37° C., 16-24 hours; read-out: Minimal Inhibitory Concentration. How it is done:
as §1, §2, §3, §4, §5, §6

The subject of a further assay is Pseudomonas aeruginosa. Kind of assay: Microtiter dilution MIC, Pseudomonas aeruginosa. It counts as cell-based. The settings on record: Mueller-Hinton broth, 37° C., 16-24 hours, read-out: Minimal Inhibitory Concentration. How it is done:
as §1, §2, §3, §4, §5, §6

The next assay deals with Saccharomyces cerevisiae. Kind of assay: Microtiter dilution MIC, Saccharomyces cerevisiae. The settings on record: yeasts or fungi, 28° C., 36-48 hours, read-out: Minimal Inhibitory Concentration. It counts as cell-based. How it is done: as §1, §2, §3, §4, §5, §6
Another assay deals with Alcaligenes viscolactis. Kind of assay: Microtiter dilution MIC, Alcaligenes viscolactis. The format is cell-based. The settings on record: Mueller-Hinton broth, 37° C., 16-24 hours, read-out: Minimal Inhibitory Concentration. How it is done:
as §1, §2, §3, §4, §5, §6

The next assay deals with Torulopsis albida. Briefly: Microtiter dilution MIC, Torulopsis albida. The settings on record: Naganishia albida; yeasts or fungi, 28° C., 36-48 hours; read-out: Minimal Inhibitory Concentration. It counts as cell-based. How it is done:
as §1, §2, §3, §4, §5, §6

Another assay concerns Bacillus megaterium. Kind of assay: Microtiter dilution MIC, Bacillus megaterium. It counts as cell-based. The settings on record: Priestia megaterium; Mueller-Hinton broth, 37° C., 16-24 hours; read-out: Minimal Inhibitory Concentration. How it is done: as §1, §2, §3, §4, §5, §6
The next assay relates to Mucor paraciticus. Kind of assay: Microtiter dilution MIC, Mucor paraciticus. The settings on record: yeasts or fungi, 28° C., 36-48 hours, read-out: Minimal Inhibitory Concentration. The format is cell-based. How it is done: as §1, §2, §3, §4, §5, §6
The test system of the next assay is Streptococcus pyogenes. Briefly: Microtiter dilution MIC, Streptococcus pyogenes. The note with it: Mueller-Hinton broth, 37° C., 16-24 hours, read-out: Minimal Inhibitory Concentration. It counts as cell-based. On the procedure:
as §1, §2, §3, §4, §5, §6

Converted amounts (≈) assume the structure as drawn. Some results are limits rather than exact numbers.

For `CCN(CC)CCNC(=O)c1ccc(O)c2nc3c(C=O)c(O)c(C)c(O)c3nc12` [Example 16, N-[2-(diethylamino)ethyl]-6-formyl-4,7,9-trihydroxy-8-methyl-1-phenazinecarboxamide], half-maximal inhibition in assay [1] (IC50) required 0.33 µg/mL (≈ 0.8 µM). In addition, the MIC in the assay with Staphylococcus aureus stood at 37 µg/mL (≈ 89.7 µM); in the assay on Micrococcus luteus, 12.3 µg/mL (≈ 29.8 µM); with Bacillus cereus, 12.3 µg/mL (≈ 29.8 µM); with Salmonella typhimurium, 37 µg/mL (≈ 89.7 µM); in the assay with Streptococcus pneumoniae it was 37 µg/mL (≈ 89.7 µM); in assay [2], 37 µg/mL (≈ 89.7 µM). For the same compound, the MIC in [3] was determined as 37 µg/mL (≈ 89.7 µM); with Rhodotorula aurantiaca, 37 µg/mL (≈ 89.7 µM); with Rhizopus japonicus, 111 µg/mL (≈ 269 µM); in the assay with Streptococcus faecalis it was 111 µg/mL (≈ 269 µM); in the assay with Branhamella catarrhalis, 12.3 µg/mL (≈ 29.8 µM); with Pseudomonas aeruginosa, 333 µg/mL (≈ 807 µM). Besides, the MIC in the assay on Saccharomyces cerevisiae was 111 µg/mL (≈ 269 µM); with Alcaligenes viscolactis, 12.3 µg/mL (≈ 29.8 µM); in the assay on Torulopsis albida it was 37 µg/mL (≈ 89.7 µM); in the assay with Bacillus megaterium, 37 µg/mL (≈ 89.7 µM); in the assay on Mucor paraciticus it was 111 µg/mL (≈ 269 µM); with Streptococcus pyogenes, 37 µg/mL (≈ 89.7 µM). In addition, the “% T/C” value in the assay on P388 leukemia cell line (19 mg/kg/injection) was determined as 136%; in the assay with P388 leukemia cell line (37.5 mg/kg/injection), 147%; with P388 leukemia cell line (75 mg/kg/injection) it was 166%; in the assay on P388 leukemia cell line (150 mg/kg/injection), 213%.
In assay [1], `Cc1c(O)c(C=O)c2nc3c(O)ccc(C(=O)NCCCN(C)C)c3nc2c1O` [Example 18, N-[3-(dimethylamino)propyl]-6-formyl-4,7,9-trihydroxy-8-methyl-1-phenazinecarboxamide] came in with an IC50 of 0.24 µg/mL (≈ 0.602 µM). The MIC in the assay on Staphylococcus aureus was found to be 37 µg/mL (≈ 92.9 µM); in the assay on Micrococcus luteus, 12.3 µg/mL (≈ 30.9 µM); with Bacillus cereus, 12.3 µg/mL (≈ 30.9 µM); in the assay on Salmonella typhimurium it was 111 µg/mL (≈ 279 µM); in the assay with Streptococcus pneumoniae, 37 µg/mL (≈ 92.9 µM); in assay [2] it was 37 µg/mL (≈ 92.9 µM). The MIC in [3] is 37 µg/mL (≈ 92.9 µM); with Rhodotorula aurantiaca, 37 µg/mL (≈ 92.9 µM); in the assay on Rhizopus japonicus it was 37 µg/mL (≈ 92.9 µM); in the assay on Streptococcus faecalis, 37 µg/mL (≈ 92.9 µM); in the assay on Branhamella catarrhalis, 12.3 µg/mL (≈ 30.9 µM); with Pseudomonas aeruginosa, over 1000 µg/mL. Further, the MIC in the assay on Saccharomyces cerevisiae came out at 111 µg/mL (≈ 279 µM); with Alcaligenes viscolactis, 12.3 µg/mL (≈ 30.9 µM); in the assay with Torulopsis albida it was 37 µg/mL (≈ 92.9 µM); in the assay with Bacillus megaterium, 37 µg/mL (≈ 92.9 µM); in the assay on Mucor paraciticus, 37 µg/mL (≈ 92.9 µM); in the assay with Streptococcus pyogenes it was 37 µg/mL (≈ 92.9 µM). The “% T/C” value with P388 leukemia cell line (25 mg/kg/injection) was 106%; with P388 leukemia cell line (50 mg/kg/injection) it was 123%; in the assay with P388 leukemia cell line (100 mg/kg/injection), 132%.

As usually defined, the IC50 is the concentration at which inhibition is half-maximal. Low values mean greater potency, high ones weaker potency.

Values taken from patent US4738929A, “Purified culture of streptomyces galanosa” (Warner-Lambert Company, priority 1986, dated 1988).
